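Compound exposure: 48 hours, 5 concentrations, 96-well plates. The concentration for full growth arrest is given as TGI.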
How the values were obtained:
Experiment in all cases: NCI-60 cell line screen, 48 h
HCT-116 colon = system: HCT-116 colon
NCI/ADR-RES ovarian = system: NCI/ADR-RES ovarian
MCF7 breast = system: MCF7 breast
SF-539 CNS = system: SF-539 CNS
PC-3 prostate = system: PC-3 prostate
DU-145 prostate = system: DU-145 prostate
SR leukemia = system: SR leukemia
BT-549 breast = system: BT-549 breast
RXF 393 renal = system: RXF 393 renal
HT29 colon = system: HT29 colon
OVCAR-3 ovarian = system: OVCAR-3 ovarian
SNB-75 CNS = system: SNB-75 CNS
MOLT-4 leukemia = system: MOLT-4 leukemia
MDA-N = system: MDA-N
M14 melanoma = system: M14 melanoma
MALME-3M melanoma = system: MALME-3M melanoma
SK-OV-3 ovarian = system: SK-OV-3 ovarian
HCC-2998 colon = system: HCC-2998 colon
HCT-15 colon = system: HCT-15 colon
K-562 leukemia = system: K-562 leukemia
SN12C renal = system: SN12C renal
UO-31 renal = system: UO-31 renal
EKVX NSCLC = system: EKVX NSCLC
CCRF-CEM leukemia = system: CCRF-CEM leukemia
A498 renal = system: A498 renal
IGROV1 ovarian = system: IGROV1 ovarian
TK-10 renal = system: TK-10 renal
SF-268 CNS = system: SF-268 CNS
OVCAR-5 ovarian = system: OVCAR-5 ovarian
CAKI-1 renal = system: CAKI-1 renal
OVCAR-8 ovarian = system: OVCAR-8 ovarian
NCI-H23 lung = system: NCI-H23 lung
SK-MEL-28 melanoma = system: SK-MEL-28 melanoma
ACHN renal = system: ACHN renal
HS 578T breast = system: HS 578T breast
NCI-H522 lung = system: NCI-H522 lung
SK-MEL-2 melanoma = system: SK-MEL-2 melanoma
SK-MEL-5 melanoma = system: SK-MEL-5 melanoma
COLO 205 colon = system: COLO 205 colon
KM12 colon = system: KM12 colon
HOP-62 NSCLC = system: HOP-62 NSCLC
NCI-H460 lung = system: NCI-H460 lung
LOX IMVI melanoma = system: LOX IMVI melanoma
SF-295 CNS = system: SF-295 CNS
RPMI-8226 leukemia = system: RPMI-8226 leukemia
HL-60(TB) leukemia = system: HL-60(TB) leukemia
MDA-MB-435 = system: MDA-MB-435
SW-620 colon = system: SW-620 colon
UACC-62 melanoma = system: UACC-62 melanoma
T-47D breast = system: T-47D breast
SNB-19 CNS = system: SNB-19 CNS
A549 NSCLC = system: A549 NSCLC
OVCAR-4 ovarian = system: OVCAR-4 ovarian
NCI-H226 lung = system: NCI-H226 lung
U251 CNS = system: U251 CNS
UACC-257 melanoma = system: UACC-257 melanoma
HOP-92 NSCLC = system: HOP-92 NSCLC
786-0 renal = system: 786-0 renal
MDA-MB-231 breast = system: MDA-MB-231 breast

`COc1cc2cc(C(=O)N3CC(CCl)c4ccc(NO)cc43)[nH]c2c(OC)c1OC` (stereo not drawn) was tested, and the TGI (HCT-116 colon) was over 100 µM, the TGI (NCI/ADR-RES ovarian) was 0.48 µM and the TGI (MCF7 breast) was over 32.8 µM. It also gave a TGI (SF-539 CNS) of 1.99 µM, a TGI (PC-3 prostate) of 2.05 µM and a TGI (DU-145 prostate) of over 31 µM. It also gave a TGI (SR leukemia) of over 100 µM, a TGI (BT-549 breast) of 1.05 µM and a TGI (RXF 393 renal) of 0.343 µM. The TGI (HT29 colon) was 11.8 µM, the TGI (OVCAR-3 ovarian) was 0.535 µM and the TGI (SNB-75 CNS) was 0.47 µM. The TGI (MOLT-4 leukemia) was 0.61 µM, the TGI (MDA-N) was 0.727 µM and the TGI (M14 melanoma) was 0.768 µM. The TGI (MALME-3M melanoma) was 0.317 µM, the TGI (SK-OV-3 ovarian) was 3.01 µM and the TGI (HCC-2998 colon) was 1.07 µM. It also gave a TGI (HCT-15 colon) of over 100 µM, a TGI (K-562 leukemia) of 0.965 µM and a TGI (SN12C renal) of 11.8 µM. For the same compound, the TGI (UO-31 renal) was 0.392 µM, the TGI (EKVX NSCLC) was 2.15 µM and the TGI (CCRF-CEM leukemia) was 1.16 µM. It also gave a TGI (A498 renal) of over 100 µM, a TGI (IGROV1 ovarian) of 10.3 µM and a TGI (TK-10 renal) of over 100 µM. It also gave a TGI (SF-268 CNS) of 0.749 µM, a TGI (OVCAR-5 ovarian) of over 37.2 µM and a TGI (CAKI-1 renal) of 3.44 µM. For the same compound, the TGI (OVCAR-8 ovarian) was 11.5 µM, the TGI (NCI-H23 lung) was 0.166 µM and the TGI (SK-MEL-28 melanoma) was 3.22 µM. It also gave a TGI (ACHN renal) of 0.723 µM, a TGI (HS 578T breast) of 0.954 µM and a TGI (NCI-H522 lung) of 0.354 µM. For the same compound, the TGI (SK-MEL-2 melanoma) was 0.325 µM, the TGI (SK-MEL-5 melanoma) was 0.342 µM and the TGI (COLO 205 colon) was 2.04 µM. It also gave a TGI (KM12 colon) of 16.3 µM, a TGI (HOP-62 NSCLC) of 0.749 µM and a TGI (NCI-H460 lung) of over 37.7 µM. For the same compound, the TGI (LOX IMVI melanoma) was 2.56 µM, the TGI (SF-295 CNS) was 0.6 µM and the TGI (RPMI-8226 leukemia) was 0.442 µM. It also gave a TGI (HL-60(TB) leukemia) of 0.403 µM, a TGI (MDA-MB-435) of 0.481 µM and a TGI (SW-620 colon) of over 100 µM. For the same compound, the TGI (UACC-62 melanoma) was 0.372 µM, the TGI (T-47D breast) was over 42.6 µM and the TGI (SNB-19 CNS) was 11.1 µM. It also gave a TGI (A549 NSCLC) of over 100 µM and a TGI (OVCAR-4 ovarian) of 0.774 µM.
For `c1ccc2c(c1)nc1ccccn12`, the TGI (HCT-116 colon) was over 100 µM, the TGI (NCI/ADR-RES ovarian) was over 100 µM and the TGI (MCF7 breast) was over 100 µM. It also gave a TGI (SF-539 CNS) of over 100 µM, a TGI (NCI-H226 lung) of over 100 µM and a TGI (PC-3 prostate) of over 100 µM. It also gave a TGI (DU-145 prostate) of over 100 µM, a TGI (SR leukemia) of over 100 µM and a TGI (BT-549 breast) of over 100 µM. For the same compound, the TGI (RXF 393 renal) was over 100 µM, the TGI (U251 CNS) was over 100 µM and the TGI (UACC-257 melanoma) was over 100 µM. The TGI (HT29 colon) was over 100 µM, the TGI (OVCAR-3 ovarian) was over 100 µM and the TGI (SNB-75 CNS) was over 100 µM. The TGI (MOLT-4 leukemia) was over 100 µM, the TGI (MDA-N) was over 100 µM and the TGI (HOP-92 NSCLC) was over 100 µM. For the same compound, the TGI (M14 melanoma) was over 100 µM, the TGI (MALME-3M melanoma) was over 100 µM and the TGI (SK-OV-3 ovarian) was over 100 µM. The TGI (786-0 renal) was over 100 µM, the TGI (HCC-2998 colon) was over 100 µM and the TGI (HCT-15 colon) was over 100 µM. The TGI (K-562 leukemia) was over 100 µM, the TGI (SN12C renal) was over 100 µM and the TGI (UO-31 renal) was over 100 µM. It also gave a TGI (EKVX NSCLC) of over 100 µM, a TGI (CCRF-CEM leukemia) of over 100 µM and a TGI (A498 renal) of 29.5 µM. For the same compound, the TGI (IGROV1 ovarian) was over 100 µM, the TGI (TK-10 renal) was over 100 µM and the TGI (SF-268 CNS) was over 100 µM. It also gave a TGI (OVCAR-5 ovarian) of over 100 µM, a TGI (OVCAR-8 ovarian) of over 100 µM and a TGI (NCI-H23 lung) of over 100 µM. It also gave a TGI (SK-MEL-28 melanoma) of over 100 µM, a TGI (ACHN renal) of over 100 µM and a TGI (HS 578T breast) of over 100 µM. It also gave a TGI (SK-MEL-5 melanoma) of over 100 µM, a TGI (COLO 205 colon) of over 100 µM and a TGI (KM12 colon) of over 100 µM. The TGI (HOP-62 NSCLC) was over 100 µM, the TGI (NCI-H460 lung) was over 100 µM and the TGI (SF-295 CNS) was over 100 µM. It also gave a TGI (RPMI-8226 leukemia) of over 100 µM, a TGI (HL-60(TB) leukemia) of over 100 µM and a TGI (MDA-MB-435) of over 100 µM. The TGI (SW-620 colon) was over 100 µM, the TGI (UACC-62 melanoma) was over 100 µM and the TGI (T-47D breast) was over 100 µM. It also gave a TGI (SNB-19 CNS) of over 100 µM and a TGI (A549 NSCLC) of over 100 µM.
Compound `COc1cc(-c2nc(N)c(C#N)c3c2CCS(=O)(=O)c2ccc(C)cc2-3)cc(OC)c1OC` has a TGI (HCT-116 colon) of over 100 µM, a TGI (NCI/ADR-RES ovarian) of over 100 µM and a TGI (NCI-H226 lung) of 51.1 µM. For the same compound, the TGI (PC-3 prostate) was over 100 µM, the TGI (DU-145 prostate) was over 100 µM and the TGI (SR leukemia) was over 100 µM. The TGI (BT-549 breast) was over 100 µM, the TGI (U251 CNS) was over 100 µM and the TGI (UACC-257 melanoma) was over 100 µM. The TGI (HT29 colon) was over 100 µM, the TGI (OVCAR-3 ovarian) was over 100 µM and the TGI (SNB-75 CNS) was 75.9 µM. The TGI (MDA-N) was over 100 µM, the TGI (HOP-92 NSCLC) was 54.8 µM and the TGI (M14 melanoma) was over 100 µM. The TGI (MALME-3M melanoma) was over 100 µM, the TGI (786-0 renal) was over 100 µM and the TGI (HCC-2998 colon) was over 100 µM. It also gave a TGI (HCT-15 colon) of over 100 µM, a TGI (K-562 leukemia) of over 100 µM and a TGI (SN12C renal) of over 100 µM. It also gave a TGI (UO-31 renal) of over 100 µM, a TGI (CCRF-CEM leukemia) of over 100 µM and a TGI (A498 renal) of 69.8 µM. The TGI (IGROV1 ovarian) was over 100 µM, the TGI (TK-10 renal) was 70 µM and the TGI (SF-268 CNS) was over 100 µM. It also gave a TGI (OVCAR-5 ovarian) of over 100 µM, a TGI (CAKI-1 renal) of over 100 µM and a TGI (OVCAR-8 ovarian) of 26.9 µM. It also gave a TGI (NCI-H23 lung) of over 100 µM, a TGI (SK-MEL-28 melanoma) of over 100 µM and a TGI (ACHN renal) of over 100 µM. The TGI (HS 578T breast) was over 100 µM, the TGI (NCI-H522 lung) was over 100 µM and the TGI (SK-MEL-2 melanoma) was over 100 µM. It also gave a TGI (SK-MEL-5 melanoma) of over 100 µM, a TGI (COLO 205 colon) of over 100 µM and a TGI (KM12 colon) of over 100 µM. It also gave a TGI (HOP-62 NSCLC) of over 100 µM, a TGI (NCI-H460 lung) of over 100 µM and a TGI (LOX IMVI melanoma) of over 100 µM. For the same compound, the TGI (RPMI-8226 leukemia) was over 100 µM, the TGI (HL-60(TB) leukemia) was over 100 µM and the TGI (MDA-MB-435) was over 100 µM. For the same compound, the TGI (SW-620 colon) was over 100 µM, the TGI (UACC-62 melanoma) was over 100 µM and the TGI (MDA-MB-231 breast) was 56.3 µM. The TGI (T-47D breast) was over 100 µM, the TGI (SNB-19 CNS) was 29.5 µM and the TGI (A549 NSCLC) was over 100 µM. It also gave a TGI (OVCAR-4 ovarian) of over 100 µM.

Reference: PubChem BioAssay (NCI)
